Laboratory results published in patent US10092584B2 (Achillion Pharmaceuticals, Inc., priority 2015, dated 2018).
Where two headings read alike, the source gives them in different places.

Target: T1, Human Factor D (Homo sapiens, UniProt P00746)
T1 construct: purified from human serum; purchased Complement Technology, Inc; host or cells: human serum
Experiment: Human Factor D assay (Example 8)
Type: biochemical
In short: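 Factor D (from human serum) 80 nM final + cpd, 5 min RT, 50 mM Tris/1M NaCl pH 7.5; add Z-L-Lys-SBzl 100 μM and DTNB 100 μM final. IC50 by nonlinear fit of rates vs [cpd].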

[1] = Table 3, Human Factor D 80 nM, substrate Z-L-Lys-SBzl, read-out: IC50 (Stars)
[2] = Table 1, Human Factor D 80 nM, substrate Z-L-Lys-SBzl, read-out: IC50
[3] = Table 2, Human Factor D 80 nM, substrate Z-L-Lys-SBzl, read-out: IC50

T1 sequence (P00746 26-253): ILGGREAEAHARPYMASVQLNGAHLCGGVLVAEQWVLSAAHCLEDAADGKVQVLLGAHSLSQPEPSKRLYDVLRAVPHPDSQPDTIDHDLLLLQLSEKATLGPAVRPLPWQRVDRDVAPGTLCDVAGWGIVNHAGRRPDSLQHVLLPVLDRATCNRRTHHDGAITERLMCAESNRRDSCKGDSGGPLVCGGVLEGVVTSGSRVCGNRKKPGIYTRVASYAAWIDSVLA

Row | Compound | IC50 [1] [nM] | IC50 [2] [nM] | further results
1 | CC(=O)c1nn(CC(=O)N2C[C@H](F)C[C@H]2C(=O)Nc2cccc(Br)n2)c2ccc(O)cc12 [Compound 395, (2S,4R)-1-(2-(3-acetyl-5-hydroxy-1H-indazol-1-yl)acetyl)-N-(6-bromopyridin-2-yl)-4-fluoropyrrolidine-2-carboxamide] | < 1000 |  | 
2 | CC(=O)c1nn(CC(=O)N2C[C@H](F)C[C@H]2C(=O)Nc2cccc(-c3ccc4c(c3Cl)NCCN4)c2F)c2ccccc12 [Compound 445, (2S,4R)-1-(2-(3-Acetyl-1H-indazol-1-yl)acetyl)-N-(3-(5-chloro-1,2,3,4-tetrahydroquinoxalin-6-yl)-2-fluorophenyl)-4-fluoropyrrolidine-2-carboxamide] | < 1000 |  | 
3 | N[C@@H](Cc1c[nH]c2ccccc12)C(=O)N1C[C@H](F)C[C@H]1C(=O)NCc1cccc(Cl)c1F [Compound 39, (2S,4R)-1-((S)-2-amino-3-(1H-indol-3-yl)propanoyl)-N-(3-chloro-2-fluorobenzyl)-4-fluoropyrrolidine-2-carboxamide] |  | > 10000 | 
4 | CC(=O)n1cc(NC(=O)N2C[C@H](F)C[C@H]2C(=O)NS(=O)(=O)c2cccc(Cl)c2F)c2ccccc21 [Compound 7, (2S,4R)-N1-(1-acetyl-1H-indol-3-yl)-N2-(3-chloro-2-fluorophenylsulfonyl)-4-fluoropyrrolidine-1,2-dicarboxamide] |  | > 10000 | 
5 | NC(=O)c1nn(CC(=O)N2C[C@H](F)C[C@H]2C(=O)Nc2cccc(-c3cc(Cl)c4nc[nH]c4c3)c2F)c2ccccc12 [Compound 458, 1-(2-((2S,4R)-2-(3-(4-chloro-1H-benzo[d]imidazol-6-yl)-2-fluorophenylcarb-amoyl)-4-fluoropyrrolidin-1-yl)-2-oxoethyl)-1H-indazole-3-carboxamide] | < 1000 |  | 
6 | CC(=O)Nc1cn(CC(=O)N2C[C@H](F)C[C@H]2C(=O)NCc2cccc(Cl)c2F)c2ccccc12 [Compound 47, (2S,4R)-1-(2-(3-acetamido-1H-indol-1-yl)acetyl)-N-(3-chloro-2-fluorobenzyl)-4-fluoropyrrolidine-2-carboxamide] |  | < 1000 | 
7 | CC(=O)c1nn(CC(=O)N2C[Si](C)(C)C[C@H]2C(=O)NCc2cccc(Cl)c2F)c2ccccc12 [Compound 268, (R)-1-(2-(3-acetyl-1H-indazol-1-yl)acetyl)-N-(3-chloro-2-fluorobenzyl)-3,3-dimethyl-1,3-azasilolidine-5-carboxamide] | 1000 to 10000 |  | 
8 | NC(=O)c1ccc(Cl)c(-c2cccc(NC(=O)[C@@H]3C[C@@H](F)CN3C(=O)Cn3nc(C(N)=O)c4ccccc43)c2F)c1 [Compound 315, 1-(2-((2S,4R)-2-((5′-carbamoyl-2′-chloro-2-fluoro-[1,1′-biphenyl]-3-yl)carbamoyl)-4-fluoropyrrolidin-1-yl)-2-oxoethyl)-1H-indazole-3-carboxamide] | < 1000 |  | 
9 | CC(=O)n1cc(NC(=O)[C@H]2CCCN2C(=O)Nc2cccc(OC(F)(F)F)c2F)c2ccccc21 [Compound 16, (R)-N2-(1-acetyl-1H-indol-3-yl)-N1-(2-fluoro-3-(trifluoromethoxy)phenyl)pyrrolidine-1,2-dicarboxamide] |  | > 10000 | 
10 | CC(=O)c1nn(CC(=O)N2C[C@H](F)C[C@H]2C(=O)Nc2cccc(-c3ccccc3Cl)c2F)c2cc(C)sc12 [Compound 131, (2S,4R)-1-(2-(3-acetyl-5-methyl-1H-thieno[3,2-c]pyrazol-1-yl)acetyl)-N-(2′-chloro-2-fluorobiphenyl-3-yl)-4-fluoropyrrolidine-2-carboxamide] |  |  | IC50 [3]: < 1000 nM
11 | CC(=O)c1nn(CC(=O)N2[C@@H]3C[C@@H]3C[C@H]2C(=O)Nc2cccc(-c3ccc4nc[nH]c4c3Cl)c2F)c2cnc(C)cc12 [Compound 454, (1R,3S,5R)-2-(2-(3-acetyl-5-methyl-1H-pyrazolo[3,4-c]pyridin-1-yl)acetyl)-N-(3-(7-chloro-1H-benzo[d]imidazol-6-yl)-2-fluorophenyl)-2-azabicyclo[3.1.0] hexane-3-carboxamide] | < 1000 |  | 
12 | NC(=O)c1nn(CC(=O)N2CC[C@@H](O)[C@H]2C(=O)Nc2cccc(-c3ccccc3Cl)c2F)c2ccccc12 [Compound 374] | < 1000 |  | 
13 | NC(=O)c1nn(CC(=O)N2CC(=O)C[C@H]2C(=O)Nc2cccc(-c3ccccc3Cl)c2F)c2ccccc12 [Compound 134, (S)-1-(2-(2-(2′-chloro-2-fluorobiphenyl-3-ylcarbamoyl)-4-oxopyrrolidin-1-yl)-2-oxoethyl)-1H-indazole-3-carboxamide] |  |  | IC50 [3]: < 1000 nM
14 | NC(=O)c1nn(CC(=O)N2C[C@H](F)C[C@H]2C(=O)Nc2cccc(-c3ccc(F)c(F)c3Cl)c2F)c2ccccc12 [Compound 92, 1-(2-((2S,4R)-2-(2′-chloro-2,3′,4′-trifluorobiphenyl-3-ylcarbamoyl)-4-fluoropyrrolidin-1-yl)-2-oxoethyl)-1H-indazole-3-carboxamide] |  |  | IC50: < 1000 nM
15 | CC(=O)c1cn(CC(=O)N2C[C@H](F)C[C@H]2C(=O)Nc2cccc(Br)n2)c2ccc(C3(NC(=O)c4cncnc4)CC3)cc12 [Compound 126, N-(1-(3-acetyl-1-(2-((2S,4R)-2-(6-bromopyridin-2-ylcarbamoyl)-4-fluoropyrrolidin-1-yl)-2-oxoethyl)-1H-indol-5-yl)cyclopropyl) pyrimidine-5-carboxamide] |  | < 1000 | 
